Patent US6420371B1, “Quinazolinone-containing pharmaceutical compositions for prevention of neovascularization and for treating malignancies” (Madasit Medical Research Services & Development Co., Ltd., priority 1997, dated 2002)
Like-named read-outs stand apart in the source and are kept apart here.

Experiments:
rat mesengial cells = assay: Sulfate and glycine incorporation into rat mesengial cell ECM; type: cell-based; settings: for inhibition at 0.05 µg/mL: 50 ng/ml Halofuginone; for inhibition at 0.2 µg/mL: 200 ng/ml Halofuginone
Procedure: Rat […] grown to confluency, 24 hours after seeding. The cells were then cultured with or without Halofuginone in the presence of either Na2^35SO4 (FIGS. 9A and 9B) or ^14C-glycine (FIGS. 9C and 9D). Eight days after sending, the cell layer was dissolved to expose the underlying ECM, washed and digested with collagenase to determine the effect of Halofuginone on CDP proteins, as shown in FIGS. 9A and 9C. The remaining material was digested with trypsin and subjected to β-scintillation counting to determine the effect of halofuginone on NCDP proteins, as shown in FIGS. 9B and 9D.

collagen type I = settings: in vitro; cited from earlier work
rat aortic rings = assay: Microvessel formation from rat aortic rings embedded in type I collagen gel; type: cell-based
Procedure: Thoracic aortas were obtained from 1- to 2-month-old SD (Sprague-Dawley) rats sacrificed by decapitation [R. F. Nicosia and A. Ottinetti, Lab. Invest, Vol. 63, pp. 115-122 (1991)]. The aortas were immediately transferred to a Petri dish with PBS. The fibro-adipose tissue around the aorta was carefully removed under a dissecting microscope, and 1 mm-long aortic rings were sectioned and extensively rinsed in PBS. Type I collagen solution (0.2 ml) was added to each 16-mm well and gellation was allowed for 15 min at 37° C. Each aorta ring was transferred and positioned to the center of the gel and another 0.4 ml of the collagen solution was carefully poured on top of the ring. […]

## O=C(CC1NCCCC1O)Cn1cnc2cc(Br)c(Cl)cc2c1=O (centres unmarked) [Halofuginone]
Rat mesengial cells; read-out: inhibition of glycine incorporation, CDP proteins
  inhibition at 0.05 µg/mL: ~80%
Rat mesengial cells; read-out: inhibition of glycine incorporation, NCDP proteins
  inhibition at 0.05 µg/mL: ~80%
Rat mesengial cells; read-out: inhibition of sulfate incorporation, CDP proteins
  inhibition at 0.2 µg/mL: ~30%
Rat mesengial cells; read-out: inhibition of sulfate incorporation, NCDP proteins
  inhibition at 0.2 µg/mL: ~70%
Collagen type I
  synthesis of collagen type I in bone chondrocytes: inhibits the synthesis of collagen type I
Rat aortic rings; 100 ng/ml Halofuginone
  inhibition of microvessel formation: almost complete inhibition
Rat aortic rings; 250 ng/ml Halofuginone
  inhibition of microvessel formation: Complete inhibition
Rat aortic rings; removal of the drug on day 2
  reversibility of inhibition of microvessel formation: reversed upon removal of the drug on day 2
